For 30 molecules, Polarität results are on record in patent EP1410783B1, “Foaming compositions” (Beiersdorf AG, priority 2001, dated 2003).

The first series in a line: Polarity of lipids (no method described). Type of series: physicochemical. The following applies: further lipids with polarity ≥ 30 mN/m, listed by INCI name.
With Dioctylcyclohexane, the Polarität is on record as 39,0 mN/m.
Regarding `CCCCCCCC/C=C\CCCCCCCC(=O)OCCOCCOCC` [Ethoxydiglycol Oleate], the Polarität is 40,5 mN/m.
As to `CCCCCCCCCCCCCC(C)C` [Isohexadecane], the Polarität was 43,8 mN/m.
For Isoeikosan, the Polarität was 41,9 mN/m.
Regarding `CCCCCCCCOC(=O)CCCCCCCCCCCCCCC(C)C` [Octyl Isostearate], the Polarität is 31,6 mN/m.
With `CCCCC(CC)COC(=O)CCCCCC(C)C` (stereo not drawn) [2- Ethylhexyl Isononanoate], the Polarität is 31,0 mN/m.
Still for that read-out and setting: with `CC(CCOC(=O)CC(C)CC(C)(C)C)CC(C)(C)C` (stereo not drawn) [Trimethylhexyl Isononanoate] the figure was 31,1 mN/m.
For the molecule Isocetyl Palmitate, the Polarität is recorded as 36,2 mN/m.

Still in this series, the particulars now being: lipids of the oil phase with polarity ≤ 30 mN/m, listed by manufacturer, trade name and INCI name.
Regarding Triisostearin [Prisorine 2041 GTIS], the Polarität is given as 2,4 mN/m.
For `CCCCCCCCCCCCCC(=O)OCC(CCCCCCCC)CCCCCCCCCC` (stereo not drawn) [M.O.D., Octyldodeceyl Myristate], the Polarität was 22,1 mN/m.
Turning to `CC(C)CCCCCCCOC(=O)C(C)(C)C` [DUB VCI 10, Isodecyl Neopentanoate], the Polarität was 29,9 mN/m.
Regarding `CCCCCCCCC(CO)CCCCCC` (stereo not drawn) [Isofol 16, Hexyl Decanol], the Polarität was 24,3 mN/m.
Take Cetearyl Isononanoate [Cetiol SN]: the Polarität was 28,6 mN/m.
Regarding Cyclomethicone [DC Fluid 345], the Polarität is reported as 28,5 mN/m.
On the same count and under the same terms, with `CCCCOC(=O)CCCCC(=O)OCCCC` [Cetiol B, Dibutyl Adipate] the figure was 14,3 mN/m; with PEG 2 Diethylenhexanoate [Dermol 488], 10,1 mN/m; with “Cyclopolydimethylsiloxan [Dow Corning Fluid 244]”, 28,5 mN/m.
Regarding `CCCCCCCCCCCCCCCCCCOC(=O)CCCCCC` [Tegosoft SH, Stearyl Heptanoate], the Polarität was 17,8 mN/m.
The same measure, in the same setting: in the case of `CCCCC(CC)C(=O)OCCC(C)CC(C)(C)C` (stereo not drawn) [Dermol 98, 2-Ethylhexanosäure 3,5,5 Trimethylester] it was 26,2 mN/m; in that of `CCCCCCCCCCC(CO)CCCCCCCC` (stereo not drawn) [Eutanol G, Octyldodecanol], 24,8 mN/m; in that of `CCCCCCCC(=O)OCC(COC(=O)CCCCCCC)OC(=O)CCCCCCC` [Trivent OCG, Tricaprylin], 20,2 mN/m.
On to Phenyl Trimethicone [Silikonöl VP 1120], for which the Polarität was 22,7 mN/m.
With `CCCCCCCCCC(=O)OCCCC(C)C` [Dermol IHD, Isohexyldecanoate], the Polarität is 29,7 mN/m.
Consider `CCCCCCCCCCCCCCCCCC(=O)OC(C)C` [Isopropylstearat, Isopropyl Stearate], for which the Polarität is 21,9 mN/m.
Take `CCCCCCCC(=O)OCCCCCCCC(C)C` [Dermol 108, Isodecyl Octanoate]: the Polarität is given as 29,6 mN/m.
For the molecule `CC(C)CCCCCCCOC(=O)CC(C)CC(C)(C)C` (stereo not drawn) [Dermol 109, Isodecyl 3,5,5 Trimethyl Hexanoate], the Polarität was 29,1 mN/m.
As for “Isotridecyl 3,5,5 Trimethylhexanonanoate [Dermol 139]”, the Polarität is reported as 24,5 mN/m.
As to `CCCCCCC(CCCC)C(=O)O` (stereo not drawn) [Isocarb 12, Butyl Octanoicacid], the Polarität is recorded as 22,1 mN/m.
Turning to `CCCCCCOCCCCCC` [Dihexyl Ether], the Polarität was 29,2 mN/m.
In the case of `CCCCCCC(CO)CCCC` (stereo not drawn) [Isofol 12, Butyl Octanol], the Polarität is given as 17,4 mN/m.
